The values that follow come from ChEMBL document CHEMBL2311518 (J Med Chem, 2013).

Experiment [1] deals with T1, Neuronal acetylcholine receptor; alpha3/beta4 (Rattus norvegicus, UniProt P04757+P12392). The experiment can be described thus: biochemical.
Description: Displacement of [3H]epibatidine from rat recombinant alpha3beta4 nAChR expressed in HEK293 cells after 4 hrs by scintillation counting analysis
Experiment [2] deals with Neuronal acetylcholine receptor; alpha4/beta2 (Rattus norvegicus, UniProt P09483+P12390). The experiment can be described thus: biochemical.
Description: Displacement of [3H]epibatidine from rat recombinant alpha4beta2 nAChR expressed in HEK293 cells after 4 hrs by scintillation counting analysis
The target of experiment [3] is Neuronal acetylcholine receptor; alpha4/beta4 (Rattus norvegicus, UniProt P09483+P12392). The experiment can be described thus: biochemical.
Description: Displacement of [3H]epibatidine from rat recombinant alpha4beta4 nAChR expressed in HEK293 cells after 4 hrs by scintillation counting analysis
Experiment [4] concerns the target Neuronal acetylcholine receptor subunit alpha-7 (Rattus norvegicus, UniProt Q05941). The note with it: tsa-201.
Description: Displacement of [3H]MLA from rat nAChR alpha7 linked to ion channel portion of 5-HT3A receptor expressed in human tsA-201 cells after 2.5 hrs by scintillation counting analysis
Experiment [5] deals with T2, Neuronal acetylcholine receptor; alpha4/beta2 (Homo sapiens, UniProt P17787+P43681).
Description: Agonist activity at human 3:2 alpha4beta2 nAChR expressed in Xenopus laevis oocytes after 1 min by two electrode voltage clamp technique
Experiment [6] has as its target T2, Neuronal acetylcholine receptor; alpha4/beta2. This is another data set of the same source.
Description: Partial agonist activity at human 2:3 alpha4beta2 nAChR expressed in Xenopus laevis oocytes after 1 min by two electrode voltage clamp technique
Experiment [7] deals with Neuronal acetylcholine receptor; alpha3/beta4 (Rattus norvegicus) (UniProt P04757+P12392). The experiment can be described thus: Modulation of rat alpha3beta4 nAChR expressed in HEK293 cells up to 1000 uM after 30 mins by FLIPR membrane potential blue assay. The experiment is classed as cell-based.
Experiment [8] addresses Acetylcholine-binding protein (Lymnaea stagnalis, UniProt P58154). The note with it: hek293.
Description: Displacement of [3H]epibatidine from Lymnaea stagnalis AChBP linked to ion channel portion of 5-HT3A receptor expressed in HEK293 cells after 4 hrs by scintillation counting analysis
Experiment [9] deals with T1, Neuronal acetylcholine receptor; alpha3/beta4.
Description: Agonist activity at rat alpha3beta4 nAChR expressed in HEK293 cells after 30 mins by FLIPR membrane potential blue assay

Values joined by “and” are separate entries in the source; they are usually repeats but may differ in a detail not shown here. Equal entries are not always repeated. Active and inactive are the calls of the source. The calls are words filed in the database; no cut-off is given here.

T2 sequence (P17787 whole entry): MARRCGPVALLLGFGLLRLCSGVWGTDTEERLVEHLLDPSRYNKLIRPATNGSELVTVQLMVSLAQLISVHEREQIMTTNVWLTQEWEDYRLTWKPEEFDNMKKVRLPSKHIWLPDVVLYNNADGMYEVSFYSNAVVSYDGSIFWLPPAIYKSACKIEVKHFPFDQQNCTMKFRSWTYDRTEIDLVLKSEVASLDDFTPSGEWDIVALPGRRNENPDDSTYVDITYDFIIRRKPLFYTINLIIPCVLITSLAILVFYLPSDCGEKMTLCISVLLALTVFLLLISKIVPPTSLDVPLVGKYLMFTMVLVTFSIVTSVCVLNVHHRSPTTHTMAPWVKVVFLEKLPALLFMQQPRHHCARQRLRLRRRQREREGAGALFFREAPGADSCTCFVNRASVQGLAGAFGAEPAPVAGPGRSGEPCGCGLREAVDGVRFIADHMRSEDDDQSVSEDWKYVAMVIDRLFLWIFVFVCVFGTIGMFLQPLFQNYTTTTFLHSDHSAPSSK
T2 sequence (P43681 whole entry): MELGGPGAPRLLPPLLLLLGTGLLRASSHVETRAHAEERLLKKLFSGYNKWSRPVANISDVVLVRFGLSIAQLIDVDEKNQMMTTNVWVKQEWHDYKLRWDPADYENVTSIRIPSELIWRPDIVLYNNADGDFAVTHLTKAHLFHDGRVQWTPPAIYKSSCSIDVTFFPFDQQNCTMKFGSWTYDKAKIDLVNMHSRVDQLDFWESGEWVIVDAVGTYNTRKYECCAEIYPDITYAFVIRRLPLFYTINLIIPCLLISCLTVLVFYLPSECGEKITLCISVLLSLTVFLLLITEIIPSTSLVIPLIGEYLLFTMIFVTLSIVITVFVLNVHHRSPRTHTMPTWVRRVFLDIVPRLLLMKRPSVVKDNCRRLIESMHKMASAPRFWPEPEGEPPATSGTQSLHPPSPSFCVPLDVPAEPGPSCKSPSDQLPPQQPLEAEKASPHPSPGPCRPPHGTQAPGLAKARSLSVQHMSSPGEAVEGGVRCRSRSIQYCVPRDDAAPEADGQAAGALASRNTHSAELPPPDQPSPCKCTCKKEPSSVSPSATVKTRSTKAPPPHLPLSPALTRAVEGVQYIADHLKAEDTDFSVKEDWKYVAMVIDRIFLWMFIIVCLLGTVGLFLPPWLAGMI
Sequence of Neuronal acetylcholine receptor; alpha4/beta4 (P09483 whole entry): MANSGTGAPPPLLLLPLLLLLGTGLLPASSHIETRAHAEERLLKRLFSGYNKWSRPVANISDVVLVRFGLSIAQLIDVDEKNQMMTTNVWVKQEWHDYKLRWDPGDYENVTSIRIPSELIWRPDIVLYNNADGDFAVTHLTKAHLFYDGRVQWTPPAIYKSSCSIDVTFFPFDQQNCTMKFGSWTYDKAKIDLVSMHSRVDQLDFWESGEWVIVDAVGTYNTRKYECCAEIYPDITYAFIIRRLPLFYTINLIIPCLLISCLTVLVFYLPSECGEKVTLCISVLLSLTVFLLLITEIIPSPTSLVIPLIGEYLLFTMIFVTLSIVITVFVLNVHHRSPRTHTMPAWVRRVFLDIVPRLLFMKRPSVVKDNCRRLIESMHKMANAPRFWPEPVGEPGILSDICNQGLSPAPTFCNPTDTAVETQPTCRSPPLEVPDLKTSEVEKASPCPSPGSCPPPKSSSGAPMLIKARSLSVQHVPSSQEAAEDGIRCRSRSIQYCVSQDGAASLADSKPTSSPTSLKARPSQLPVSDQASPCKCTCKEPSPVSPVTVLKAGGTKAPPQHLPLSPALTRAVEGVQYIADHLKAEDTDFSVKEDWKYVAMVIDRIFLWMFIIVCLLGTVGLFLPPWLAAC
Sequence of Neuronal acetylcholine receptor; alpha4/beta4 (P12392 whole entry): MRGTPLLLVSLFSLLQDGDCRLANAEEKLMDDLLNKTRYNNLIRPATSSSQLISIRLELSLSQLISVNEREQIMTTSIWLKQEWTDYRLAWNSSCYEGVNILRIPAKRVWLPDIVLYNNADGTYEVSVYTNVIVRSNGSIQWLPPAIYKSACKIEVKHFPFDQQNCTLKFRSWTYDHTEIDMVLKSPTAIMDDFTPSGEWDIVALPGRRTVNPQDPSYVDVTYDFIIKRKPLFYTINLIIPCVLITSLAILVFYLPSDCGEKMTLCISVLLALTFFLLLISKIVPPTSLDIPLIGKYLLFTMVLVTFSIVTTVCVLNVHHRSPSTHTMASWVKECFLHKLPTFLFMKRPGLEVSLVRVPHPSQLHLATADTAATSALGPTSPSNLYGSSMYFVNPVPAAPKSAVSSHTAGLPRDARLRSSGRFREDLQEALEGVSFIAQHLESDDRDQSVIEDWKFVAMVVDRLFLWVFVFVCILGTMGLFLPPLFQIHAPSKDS
Sequence of Neuronal acetylcholine receptor; alpha4/beta2 (Rattus norvegicus, UniProt P09483+P12390) (P09483 whole entry): as the sequence (P09483 whole entry) above
Sequence of Neuronal acetylcholine receptor; alpha4/beta2 (Rattus norvegicus, UniProt P09483+P12390) (P12390 whole entry): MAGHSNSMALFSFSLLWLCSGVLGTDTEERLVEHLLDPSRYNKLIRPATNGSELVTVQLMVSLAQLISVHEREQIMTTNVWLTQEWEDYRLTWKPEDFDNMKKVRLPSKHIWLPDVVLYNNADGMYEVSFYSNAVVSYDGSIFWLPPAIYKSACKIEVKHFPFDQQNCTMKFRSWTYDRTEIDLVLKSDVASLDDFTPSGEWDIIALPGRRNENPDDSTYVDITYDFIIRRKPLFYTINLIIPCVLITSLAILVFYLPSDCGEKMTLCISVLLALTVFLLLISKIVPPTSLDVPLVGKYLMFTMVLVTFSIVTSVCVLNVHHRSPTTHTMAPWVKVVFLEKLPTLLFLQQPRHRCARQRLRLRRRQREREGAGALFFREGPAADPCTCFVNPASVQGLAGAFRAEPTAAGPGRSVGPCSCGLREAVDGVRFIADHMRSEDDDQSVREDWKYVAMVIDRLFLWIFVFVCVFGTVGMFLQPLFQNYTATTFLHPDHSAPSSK
Sequence of Acetylcholine-binding protein (P58154 20-229 limits assumed): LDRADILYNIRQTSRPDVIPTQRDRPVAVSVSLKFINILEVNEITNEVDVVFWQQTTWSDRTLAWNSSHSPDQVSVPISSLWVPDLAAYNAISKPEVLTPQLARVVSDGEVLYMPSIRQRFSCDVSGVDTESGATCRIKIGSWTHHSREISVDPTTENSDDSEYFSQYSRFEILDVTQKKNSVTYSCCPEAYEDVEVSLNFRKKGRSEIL
T1 sequence (P04757 whole entry): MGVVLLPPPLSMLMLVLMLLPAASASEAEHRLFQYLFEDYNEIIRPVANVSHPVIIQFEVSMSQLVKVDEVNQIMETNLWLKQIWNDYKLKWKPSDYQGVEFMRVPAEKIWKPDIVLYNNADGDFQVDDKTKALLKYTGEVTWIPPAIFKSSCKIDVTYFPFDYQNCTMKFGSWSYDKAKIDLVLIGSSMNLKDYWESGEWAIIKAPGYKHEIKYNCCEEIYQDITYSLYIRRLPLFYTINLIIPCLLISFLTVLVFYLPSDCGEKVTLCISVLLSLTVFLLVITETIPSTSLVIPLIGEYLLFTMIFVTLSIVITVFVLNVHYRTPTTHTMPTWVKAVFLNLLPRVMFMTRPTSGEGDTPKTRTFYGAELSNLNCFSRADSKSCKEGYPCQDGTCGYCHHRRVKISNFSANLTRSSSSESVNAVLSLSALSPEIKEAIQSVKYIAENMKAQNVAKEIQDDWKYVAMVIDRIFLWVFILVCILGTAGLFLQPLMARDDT
T1 sequence (P12392 whole entry): as the sequence (P12392 whole entry) above
Sequence of Neuronal acetylcholine receptor subunit alpha-7 (Q05941 23-502 limits assumed): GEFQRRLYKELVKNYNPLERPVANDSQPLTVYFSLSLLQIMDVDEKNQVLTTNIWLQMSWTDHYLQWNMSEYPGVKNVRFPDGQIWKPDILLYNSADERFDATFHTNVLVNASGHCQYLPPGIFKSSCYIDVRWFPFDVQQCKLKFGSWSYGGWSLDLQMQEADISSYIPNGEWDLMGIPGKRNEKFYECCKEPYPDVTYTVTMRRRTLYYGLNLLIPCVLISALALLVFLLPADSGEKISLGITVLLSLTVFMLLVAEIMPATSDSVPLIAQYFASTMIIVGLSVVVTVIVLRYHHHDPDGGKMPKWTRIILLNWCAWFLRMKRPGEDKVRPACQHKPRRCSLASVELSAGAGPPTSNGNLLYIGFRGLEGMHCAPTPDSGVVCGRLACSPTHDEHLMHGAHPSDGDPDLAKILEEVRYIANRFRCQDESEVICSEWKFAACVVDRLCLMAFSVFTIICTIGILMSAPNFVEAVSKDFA

By Ki is commonly meant a dissociation constant, usually derived from enzyme kinetics or from competition with a known ligand. A lower Ki goes with higher affinity. For `C[C@H](CCOc1cnccn1)N(C)C`, the Ki in experiment [1] came to 42 µM; in experiment [2] it was 0.24 µM; in [3] it was 8.3 µM.
The term pKi denotes the Ki on a negative log10 scale, so that one unit is a factor of ten. `C[C@H](CCOc1nc(Br)cn1C)N(C)C`: the Ki is 1000 µM in [4], 300 µM in [1], 0.12 µM in experiment [2] and 50 µM in [3]. The compound further displayed a pKi in experiment [4] of 3.
As for `C[C@H](CCOc1nccs1)N(C)C`, the Ki in [1] was found to be 4.7 µM; in experiment [2] it was 0.013 µM; in experiment [3], 1.8 µM.
A word on the EC50: it is the concentration giving half of the maximal effect. Low readings indicate a more potent agent, high ones a less potent agent. Regarding `Cc1cn(C)c(OCC[C@@H](C)N(C)C)n1`, the inhibition constant Ki in experiment [4] was more than 1000 µM; in [1], 24 µM; in experiment [2] it was 0.28 µM; in experiment [3], 50 µM; in [8], 1.5 µM. Moreover, the results for the pKi in [4] and in [8] were less than 3 and 5.82, respectively. Besides, the EC50 was found to be 34 µM in experiment [5] and 19 µM in experiment [6]. The outcome in experiment [7] was inactive.
As for `C[C@H](CCOn1cccn1)N(C)C`, the Ki in [1] was 8.1 µM; in [2], 0.018 µM; in [3], 11 µM.
In the case of `C[C@H](CCOc1cccnc1)N(C)C`, the Ki in experiment [1] is 4.9 µM; in experiment [2], 0.03 µM; in experiment [3], 8.3 µM.
Regarding `C[C@H](CCOC(=O)N(C)C)N(C)C`, the Ki was more than 1000 µM in [4]; 0.42 µM in [1]; 0.02 µM in experiment [2]; 0.15 µM in experiment [3]; 0.079 µM in experiment [8]. In addition, the pKi in experiment [4] is less than 3; in experiment [8], 7.1. The EC50 in [9] is 11 µM; in experiment [5], 15.8 µM and 14 µM; in [6] it was 0.72 µM.
